Reference: patent US6737383B1, “Herbicidal oxadiazolidines” (priority 1999, dated 2004)

Columns and labels:
[1] = tested on: bedstraw; assay: Test B pre/postemergence bedstraw; format: in vivo, Galium aparine; conditions: Preemergence; for Plant response rating, Bedstraw: Rate 125 g/ha
Summary of the method: (§1)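 Herbicidal effect was estimated by eye on a ten-point control scale after plants spent twelve to sixteen days in a greenhouse following soil or foliar treatment. Foliar sprays targeted plants at one to four leaves; all doses were formulated in a non-phytotoxic solvent with surfactant.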

[2] = tested on: blackgrass; assay: Test B pre/postemergence blackgrass; format: in vivo, Alopecurus myosuroides; conditions: Preemergence; for Plant response rating, Blackgrass: Rate 125 g/ha
Summary of the method: as §1

[3] = tested on: surinam grass; assay: Test B pre/postemergence surinam grass; format: in vivo, Brachiaria decumbens; conditions: Preemergence; for Plant response rating, B. signalgrass: Rate 125 g/ha
Summary of the method: as §1

[4] = tested on: cocklebur; assay: Test B pre/postemergence cocklebur; format: in vivo, Xanthium strumarium; conditions: Preemergence; for Plant response rating, Cocklebur: Rate 125 g/ha
Summary of the method: as §1

[5] = tested on: corn; assay: Test B pre/postemergence corn; format: in vivo, Zea mays; conditions: Preemergence; for Plant response rating, Corn: Rate 125 g/ha
Summary of the method: as §1

[6] = tested on: crabgrass; assay: Test B pre/postemergence crabgrass; format: in vivo, Digitaria sanguinalis; conditions: Preemergence; for Plant response rating, Crabgrass: Rate 125 g/ha
Summary of the method: as §1

[7] = tested on: giant foxtail; assay: Test B pre/postemergence giant foxtail; format: in vivo, Setaria faberii; conditions: Preemergence; for Plant response rating, Giant foxtail: Rate 125 g/ha
Summary of the method: as §1

[8] = tested on: morningglory; assay: Test B pre/postemergence morningglory; format: in vivo, Ipomoea hederacea; conditions: Preemergence; for Plant response rating, Morningglory: Rate 125 g/ha
Summary of the method: as §1

[9] = tested on: pigweed; assay: Test B pre/postemergence pigweed; format: in vivo, Amaranthus retroflexus; conditions: Preemergence; for Plant response rating, Redroot pigweed: Rate 125 g/ha
Summary of the method: as §1

[10] = tested on: rape; assay: Test B pre/postemergence rape; format: in vivo, Brassica napus; conditions: Preemergence; for Plant response rating, Rape: Rate 125 g/ha
Summary of the method: as §1

[11] = tested on: soybean; assay: Test B pre/postemergence soybean; format: in vivo, Glycine max; conditions: Preemergence; for Plant response rating, Soybean: Rate 125 g/ha
Summary of the method: as §1

[12] = tested on: sugar beet; assay: Test B pre/postemergence sugar beet; format: in vivo, Beta vulgaris; conditions: Preemergence; for Plant response rating, Sugarbeets: Rate 125 g/ha
Summary of the method: as §1

[13] = tested on: velvetleaf; assay: Test B pre/postemergence velvetleaf; format: in vivo, Abutilon theophrasti; conditions: Preemergence; for Plant response rating, Velvetleaf: Rate 125 g/ha
Summary of the method: as §1

[14] = tested on: wheat; assay: Test B pre/postemergence wheat; format: in vivo, Triticum aestivum; conditions: Preemergence; for Plant response rating, Wheat: Rate 125 g/ha
Summary of the method: as §1

[15] = tested on: wild oat; assay: Test B pre/postemergence wild oat; format: in vivo, Avena fatua; conditions: Preemergence; for Plant response rating, Wild oats: Rate 125 g/ha
Summary of the method: as §1

[16] = tested on: purple nutsedge; assay: Test B pre/postemergence purple nutsedge; format: in vivo, Cyperus rotundus; conditions: Preemergence; for Plant response rating, Nutsedge: Rate 125 g/ha
Summary of the method: as §1

[17] = Rate 31 g/ha, visual rating, scale 0 to 10 (0 no effect, 10 complete control)
[18] = Rate 62 g/ha, scale of 0 to 10 where 0 is no effect and 10 is complete control
[19] = scale of 0 to 10 where 0 is no effect and 10 is complete control
[20] = Rate 250 g/ha, scale 0 (no effect) to 10 (complete control)
[21] = Rate 500 g/ha, scale 0 to 10 (0 no effect, 10 complete control)

With CC(=O)NCCn1c(=O)on(C(=O)N(c2ccc(F)cc2)C(C)C)c1=O [Compound 727] the “Bedstraw plant response rating” value [1, 17] was 0, the “Bedstraw plant response rating” value [1, 18] was 0 and the “Plant response rating, Bedstraw” value [1, 19] was 0. For the same molecule, the “Bedstraw plant response rating” value [1, 20] was 0, the “Blackgrass plant response rating” value [2, 17] was 0 and the “Blackgrass plant response rating” value [2, 18] was 0. The “Plant response rating, Blackgrass” value [2, 19] was 7, the “Blackgrass plant response rating” value [2, 20] was 8 and the “B. signalgrass plant response rating” value [3, 17] was 0. For the same molecule, the “B. signalgrass plant response rating” value [3, 18] was 0, the “Plant response rating, B. signalgrass” value [3, 19] was 6 and the “B. signalgrass plant response rating” value [3, 20] was 7. The “Cocklebur plant response rating” value [4, 17] was 0, the “Cocklebur plant response rating” value [4, 18] was 0 and the “Plant response rating, Cocklebur” value [4, 19] was 0. The “Cocklebur plant response rating” value [4, 20] was 0, the “Corn plant response rating” value [5, 17] was 0 and the “Corn plant response rating” value [5, 18] was 0. For the same molecule, the “Plant response rating, Corn” value [5, 19] was 0, the “Corn plant response rating” value [5, 20] was 0 and the “Crabgrass plant response rating” value [6, 17] was 3. The “Crabgrass plant response rating” value [6, 18] was 3, the “Plant response rating, Crabgrass” value [6, 19] was 8 and the “Crabgrass plant response rating” value [6, 20] was 9. The “Giant foxtail plant response rating” value [7, 17] was 5, the “Giant foxtail plant response rating” value [7, 18] was 7 and the “Plant response rating, Giant foxtail” value [7, 19] was 7. The “Giant foxtail plant response rating” value [7, 20] was 10, the “Morningglory plant response rating” value [8, 18] was 0 and the “Plant response rating, Morningglory” value [8, 19] was 0. The “Morningglory plant response rating” value [8, 20] was 0, the “Redroot pigweed plant response rating” value [9, 18] was 0 and the “Plant response rating, Redroot pigweed” value [9, 19] was 5. For the same molecule, the “Redroot pigweed plant response rating” value [9, 20] was 5, the “Rape plant response rating” value [10, 18] was 0 and the “Plant response rating, Rape” value [10, 19] was 0. The “Rape plant response rating” value [10, 20] was 1, the “Soybean plant response rating” value [11, 18] was 0 and the “Plant response rating, Soybean” value [11, 19] was 0. For the same molecule, the “Soybean plant response rating” value [11, 20] was 0, the “Sugarbeets plant response rating” value [12, 18] was 0 and the “Plant response rating, Sugarbeets” value [12, 19] was 0. The “Sugarbeets plant response rating” value [12, 20] was 0, the “Velvetleaf plant response rating” value [13, 18] was 0 and the “Plant response rating, Velvetleaf” value [13, 19] was 0. The “Velvetleaf plant response rating” value [13, 20] was 0, the “Wheat plant response rating” value [14, 18] was 0 and the “Plant response rating, Wheat” value [14, 19] was 0. The “Wheat plant response rating” value [14, 20] was 0, the “Wild oats plant response rating” value [15, 18] was 0 and the “Plant response rating, Wild oats” value [15, 19] was 3. For the same molecule, the “Wild oats plant response rating” value [15, 20] was 3, the “Plant response rating, Nutsedge” value [16, 19] was 0 and the “Nutsedge plant response rating” value [16, 20] was 0.

For COC(CCl)n1c(=O)on(C(=O)N(c2ccc(Cl)cc2)C(C)C)c1=O (stereo not drawn) [Compound 725], the “Bedstraw plant response rating” value [1, 18] was 0, the “Plant response rating, Bedstraw” value [1, 19] was 0 and the “Bedstraw plant response rating” value [1, 20] was 0. For the same molecule, the “Bedstraw plant response rating” value [1, 21] was 0, the “Blackgrass plant response rating” value [2, 18] was 2 and the “Plant response rating, Blackgrass” value [2, 19] was 4. For the same molecule, the “Blackgrass plant response rating” value [2, 20] was 7, the “Blackgrass plant response rating” value [2, 21] was 7 and the “B. signalgrass plant response rating” value [3, 18] was 0. The “Plant response rating, B. signalgrass” value [3, 19] was 3, the “B. signalgrass plant response rating” value [3, 20] was 4 and the “B. signalgrass plant response rating” value [3, 21] was 4. The “Cocklebur plant response rating” value [4, 18] was 0, the “Plant response rating, Cocklebur” value [4, 19] was 0 and the “Cocklebur plant response rating” value [4, 20] was 0. The “Cocklebur plant response rating” value [4, 21] was 0, the “Corn plant response rating” value [5, 18] was 0 and the “Plant response rating, Corn” value [5, 19] was 0. For the same molecule, the “Corn plant response rating” value [5, 20] was 0, the “Corn plant response rating” value [5, 21] was 0 and the “Crabgrass plant response rating” value [6, 18] was 6. The “Plant response rating, Crabgrass” value [6, 19] was 6, the “Crabgrass plant response rating” value [6, 20] was 8 and the “Crabgrass plant response rating” value [6, 21] was 8. For the same molecule, the “Giant foxtail plant response rating” value [7, 18] was 7, the “Plant response rating, Giant foxtail” value [7, 19] was 8 and the “Giant foxtail plant response rating” value [7, 20] was 10. The “Giant foxtail plant response rating” value [7, 21] was 10, the “Morningglory plant response rating” value [8, 18] was 1 and the “Plant response rating, Morningglory” value [8, 19] was 1. The “Morningglory plant response rating” value [8, 20] was 1, the “Morningglory plant response rating” value [8, 21] was 3 and the “Redroot pigweed plant response rating” value [9, 18] was 0. The “Plant response rating, Redroot pigweed” value [9, 19] was 0, the “Redroot pigweed plant response rating” value [9, 20] was 0 and the “Redroot pigweed plant response rating” value [9, 21] was 3. The “Rape plant response rating” value [10, 18] was 0, the “Plant response rating, Rape” value [10, 19] was 0 and the “Rape plant response rating” value [10, 20] was 0. For the same molecule, the “Rape plant response rating” value [10, 21] was 0, the “Soybean plant response rating” value [11, 18] was 0 and the “Plant response rating, Soybean” value [11, 19] was 0. The “Soybean plant response rating” value [11, 20] was 0, the “Soybean plant response rating” value [11, 21] was 0 and the “Sugarbeets plant response rating” value [12, 18] was 0. For the same molecule, the “Plant response rating, Sugarbeets” value [12, 19] was 0, the “Sugarbeets plant response rating” value [12, 20] was 0 and the “Sugarbeets plant response rating” value [12, 21] was 2. For the same molecule, the “Velvetleaf plant response rating” value [13, 18] was 0, the “Plant response rating, Velvetleaf” value [13, 19] was 0 and the “Velvetleaf plant response rating” value [13, 20] was 0. For the same molecule, the “Velvetleaf plant response rating” value [13, 21] was 0, the “Wheat plant response rating” value [14, 18] was 0 and the “Plant response rating, Wheat” value [14, 19] was 0. The “Wheat plant response rating” value [14, 20] was 0, the “Wheat plant response rating” value [14, 21] was 0 and the “Wild oats plant response rating” value [15, 18] was 0. For the same molecule, the “Plant response rating, Wild oats” value [15, 19] was 2, the “Wild oats plant response rating” value [15, 20] was 4 and the “Wild oats plant response rating” value [15, 21] was 6. The “Nutsedge plant response rating” value [16, 18] was 0, the “Plant response rating, Nutsedge” value [16, 19] was 0 and the “Nutsedge plant response rating” value [16, 21] was 0.
